One assay deals with B16 melanoma cells. Kind of assay: Test for malignant melanoma metastasis-inhibitory effect (lung metastasis after i.v. injection of B16 melanoma cells). The assay is classed as in vivo, Whister female rats. Particulars: rats; for RMI (rate of metastasis-inhibition): every other day, lung lesions on 15th day; for tumor cell-metastasis-inhibitory effect compared with the control group (in words): metastasis of cancer to lung, summary of Table 2. As for the experimental part: The tumor cell-metastasis-inhibitory effect can be evaluated according to, for instance, the malignant melanoma metastasis-inhibitory test. More specifically, a suspension of B16 melanoma cells prepared in advance is intravenously injected into Whister female rats, cotton seed oil in which each test substance is dissolved in a predetermined concentration is intraperitoneally administered through injection or orally administered using a sonde, every second day starting from 2nd day after the intravenous injection of the suspension. In this connection, only cotton seed oil is administered to the control group of animals. The lungs are extracted from these animals on the 15th day after the injection of the B16 melanoma cells, the lungs are examined to determine the number of cancer lesions thus metastasized to thus calculate the rate of metastasis-inhibition. The tumor cell-metastasis-inhibitory effect of each test sample is evaluated on the basis of the resulting rate of metastasis-inhibition.
Tests for evaluating the malignant melanoma metastasis-inhibitory effect of each test sample were conducted according to the following method. Whister female rats (6-week-old; average body weight: 160 g) were preliminarily bred with a powdery feed preparation having a composition of AIN-93 for one week, these animals were divided into 5 groups (8 animals per group) so as to equalize the average body weight and then a previously prepared suspension of B16 melanoma cells was intravenously injected into each rat. Subsequently, these animals were bred with a powdery feed preparation having a composition of AIN-93 and cotton seed oil in which each of maslinic acid, erythrodiol, ursolic acid, uvaol, betulinic acid, betulin, compounds of Synthetic Examples 1 and 2, or oleanolic acid had been dissolved in a predetermined concentration was intraperitoneally injected into each animal or orally administered thereto using a sonde, every other day starting from the 2nd day after the injection of the B 16 melanoma cells. In this connection, only cotton seed oil was administered to the control group. On the 15th day after the injection of the B 16 melanoma cells, the lung of each animal was taken out, the lungs were examined to determine the number of cancer lesions thus metastasized and to thus calculate the rate of metastasis-inhibition in accordance with the following equation 2. The tumor cell-metastasis-inhibitory effect of each test sample could be evaluated on the basis of the resulting rate of metastasis-inhibition.
Rate of Metastasis-Inhibition (%)=[(D−C)/D]×100
Wherein C: Average number of cancer lesions metastasized observed in each animal group; and D: average number of cancer lesions metastasized observed in the control group.
Maslinic acid, erythrodiol, ursolic acid, uvaol, betulinic acid, betulin and physiologically acceptable salts thereof or derivatives thereof as well as cotton seed oil as the control were inspected for the rate of metastasis-inhibition (RMI) using the dose and administration methods specified in the following Table 2. In addition, the same procedures used above were repeated except for using oleanolic acid as a comparative sample to thus evaluate the rate of metastasis-inhibition (RMI) thereof.

The test system of another assay is B-16 melanoma cells. Put plainly: Tests for tumor cell-proliferation-inhibitory effect and tumor cell-extinction (cell growth rate from viable cell count). Particulars: for tumor cell-killing effect (in words): at not less than 2 times the concentration required for proliferation inhibition. The assay is classed as cell-based. As for the experimental part:
The tumor cell-proliferation-inhibitory effect and the tumor cell-killing or extinction effect can be determined according to the following method using B-16 melanoma cells.
More specifically, B-16 melanoma cells are inoculated in each well of a 6-well plate in a desired amount, followed by allowing the plate to stand at 37° C. and 5% carbon dioxide concentration to thus cultivate the cells, adding a sample solution to be tested (maslinic acid, erythrodiol, ursolic acid, uvaol, betulinic acid, betulin and physiologically acceptable salts thereof or derivatives thereof) to each well in an amount sufficient for achieving a desired concentration, on the next day or after 5 days from the initiation of the cultivation, determination of viable cell count on the 6th day after the initiation of the cultivation and calculation of the cell growth rate based on the viable cell count to thus evaluate the tumor cell-proliferation-inhibitory effect and the tumor cell-killing effect.
Tests for determining the tumor cell-proliferation-inhibitory effect and the tumor cell-killing effect were conducted according to the following method. To a 6-well plate, a culture medium was dispensed in an amount of 2 mL/well, B-16 melanoma cells were then inoculated in a desired quantity and thereafter the melanoma cells were cultivated by allowing the plate or the culture medium to stand at 37° C. and a carbon dioxide concentration of 5%. On the following day, a test sample solution prepared was added to and admixed with the content of each well to a desired concentration and the cultivation of the melanoma cells was continued. The culture medium was then exchanged on the 5th day from the initiation of the cultivation and the test sample solution was again added to each well. On the next day, the culture medium was removed to recover the cultivated melanoma cells, followed by washing the cells with PBS (phosphate buffered saline), determination of the viable cell count, and then calculation of the cell growth rate according to the following equation 1. The tumor cell-proliferation-inhibitory effect and the tumor cell-killing effect of each test sample were evaluated on the basis of the cell growth rate thus determined.
Cell Growth Rate (%)=(A/B)×100
As comparative examples, oleanolic acid, β-amyrin, α-amyrin and lupeol were added to the culture medium to thus determine and evaluate the cell growth rate by the same method used above.

The mark [1] stands for this setting: 100 mg/body wt. (kg), Oral Adm.
Where [2] appears, read: Mus musculus, B16, 144 h, 5 ppm, viable cell count vs control on 6th day, read-out: Cell Growth Rate.
Where [3] appears, read: Mus musculus, B16, 144 h, 15 ppm, viable cell count vs control on 6th day, read-out: Cell Growth Rate.
Where [4] appears, read: Mus musculus, B16, 144 h, 25 ppm, viable cell count vs control on 6th day, read-out: Cell Growth Rate.
Setting [5] is: Mus musculus, B16, 144 h, viable cell count vs control on 6th day.
Where [6] appears, read: Mus musculus, B16, 144 h, 20 ppm, viable cell count vs control on 6th day, read-out: Cell Growth Rate.

Structures are written as SMILES. “Also recorded” adds a separate entry of the source. Read-outs that look alike come from different tables or passages of the source.

With `C=C(C)[C@@H]1CC[C@]2(CO)CC[C@]3(C)[C@H](CC[C@@H]4[C@@]5(C)CC[C@H](O)C(C)(C)[C@@H]5CC[C@]43C)[C@@H]12` [Betulin], the “RMI (rate of metastasis-inhibition)” value in the assay on B16 melanoma cells (setting [1]) was found to be 38.9%. In addition, the “tumor cell-metastasis-inhibitory effect compared with the control group (in words)” value with B16 melanoma cells is “significantly (P<0.05) inhibit any metastasis of cancer to lung”. Moreover, in the assay with B-16 melanoma cells (setting [2]), the activity at 5 ppm is 100%. The activity at 15 ppm with B-16 melanoma cells (setting [3]) came out at 78%. In the assay on B-16 melanoma cells (setting [4]), the activity at 25 ppm turned out to be 72%. The activity at 50 ppm in the assay with B-16 melanoma cells (setting [5]) was determined as 63%. Further, the “tumor cell-proliferation-inhibitory effect (in words)” value in the assay on B-16 melanoma cells (summary of Table 1) is “quite strong tumor cell-proliferation-inhibitory effects”.
For the molecule `CC(=O)O[C@@H]1C[C@]2(C)[C@H]3CC=C4[C@@H]5CC(C)(C)CC[C@]5(C(=O)O)CC[C@@]4(C)[C@]3(C)CC[C@H]2C(C)(C)[C@H]1OC(C)=O` [Comp. Of Synthetic Ex. 2, 2,3-O-di-acetyl-maslinic acid], the “RMI (rate of metastasis-inhibition)” value in the assay on B16 melanoma cells (setting [1]) worked out at 74.8%. Besides, the “Cell Growth Rate” value in the assay with B-16 melanoma cells (5 ppm, viable cell count vs control on 6th day) worked out at 89%; with B-16 melanoma cells (10 ppm, viable cell count vs control on 6th day), 63%; in the assay on B-16 melanoma cells (15 ppm, viable cell count vs control on 6th day), 34%; in the assay on B-16 melanoma cells (20 ppm, viable cell count vs control on 6th day) it was 4%; in the assay on B-16 melanoma cells (25 ppm, viable cell count vs control on 6th day), 0%.
Turning to `CC1(C)CC[C@]2(C(=O)O)CC[C@]3(C)C(=CC[C@@H]4[C@@]5(C)CC[C@H](O)C(C)(C)[C@@H]5CC[C@]43C)[C@@H]2C1` [Oleanolic acid, oleanolic acid, reference compound], the “RMI (rate of metastasis-inhibition)” value in the assay with B16 melanoma cells (300 mg/body wt. (kg), Oral Adm.) is on record as 9.2%. Further, in the assay with B16 melanoma cells, the “tumor cell-metastasis-inhibitory effect compared with the control group (in words)” value is given as “does not possess any tumor cell-metastasis-inhibitory effect; also recorded: Any significant effect was not observed”. In addition, the activity at 15 ppm in the assay on B-16 melanoma cells (setting [3]) is 100%. Further, the activity at 20 ppm with B-16 melanoma cells (setting [6]) was found to be 100%. The activity at 25 ppm with B-16 melanoma cells (setting [4]) amounted to 100%. This molecule returned an activity at 30 ppm with B-16 melanoma cells (Mus musculus, B16, 144 h, 30 ppm, viable cell count vs control on 6th day) of 100%. For the same molecule, the activity at 40 ppm in the assay with B-16 melanoma cells (Mus musculus, B16, 144 h, 40 ppm, viable cell count vs control on 6th day) was 100%. In addition, the activity at 50 ppm in the assay on B-16 melanoma cells (setting [5]) came out at 94%. Besides, the “tumor cell-killing effect (in words)” value in the assay with B-16 melanoma cells is on record as “not observed”. Further, the “tumor cell-proliferation-inhibitory effect (in words)” value in the assay with B-16 melanoma cells (summary of Table 1) is “cannot inhibit the proliferation of the B-16 melanoma cells at all”; with B-16 melanoma cells (summary of Table 1, listed as oleanolic acid), “quite weak tumor cell-proliferation-inhibitory effect only at a higher concentration”.
With `C[C@H]1[C@H](C)CC[C@]2(C(=O)O)CC[C@]3(C)C(=CC[C@@H]4[C@@]5(C)CC[C@H](O)C(C)(C)[C@@H]5CC[C@]43C)[C@H]12` [Ursolic acid], the “RMI (rate of metastasis-inhibition)” value with B16 melanoma cells (setting [1]) was 79.5%. Also, in the assay with B16 melanoma cells, the “tumor cell-metastasis-inhibitory effect compared with the control group (in words)” value is listed as “significantly (P<0.05) inhibit any metastasis of cancer to lung”. Also, the activity at 5 ppm in the assay on B-16 melanoma cells (setting [2]) was 64%. In the assay on B-16 melanoma cells (Mus musculus, B16, 144 h, 10 ppm, viable cell count vs control on 6th day, read-out: Cell Growth Rate), the activity at 10 ppm is 40%. In the assay on B-16 melanoma cells (setting [3]), the activity at 15 ppm came out at 3%. The activity at 20 ppm in the assay with B-16 melanoma cells (setting [6]) is 0%. Besides, in the assay with B-16 melanoma cells (setting [4]), the activity at 25 ppm amounted to 0%. In addition, the activity at 50 ppm in the assay with B-16 melanoma cells (setting [5]) turned out to be 0%. For the same molecule, the “tumor cell-killing effect (in words)” value in the assay on B-16 melanoma cells is “quite intensive tumor cell-killing effects”. The “tumor cell-proliferation-inhibitory effect (in words)” value in the assay on B-16 melanoma cells (summary of Table 1) was “quite strong tumor cell-proliferation-inhibitory effects”.
With `C=C(C)[C@@H]1CC[C@]2(C(=O)O)CC[C@]3(C)[C@H](CC[C@@H]4[C@@]5(C)CC[C@H](O)C(C)(C)[C@@H]5CC[C@]43C)[C@@H]12` [Betulinic acid], in the assay on B16 melanoma cells (setting [1]), the “RMI (rate of metastasis-inhibition)” value is reported as 51.2%. The “tumor cell-metastasis-inhibitory effect compared with the control group (in words)” value in the assay on B16 melanoma cells is “significantly (P<0.05) inhibit any metastasis of cancer to lung”. Also, the activity at 5 ppm in the assay with B-16 melanoma cells (setting [2]) was 88%. The activity at 15 ppm in the assay with B-16 melanoma cells (setting [3]) was found to be 77%. Moreover, the activity at 25 ppm in the assay on B-16 melanoma cells (setting [4]) was found to be 58%. Besides, the activity at 50 ppm with B-16 melanoma cells (setting [5]) was 38%. The “tumor cell-proliferation-inhibitory effect (in words)” value in the assay on B-16 melanoma cells (summary of Table 1) was “quite strong tumor cell-proliferation-inhibitory effects”.
Regarding `C[C@H]1[C@H](C)CC[C@]2(CO)CC[C@]3(C)C(=CC[C@@H]4[C@@]5(C)CC[C@H](O)C(C)(C)[C@@H]5CC[C@]43C)[C@H]12` [Uvaol], the “RMI (rate of metastasis-inhibition)” value with B16 melanoma cells (setting [1]) worked out at 43.7%. In the assay on B16 melanoma cells, the “tumor cell-metastasis-inhibitory effect compared with the control group (in words)” value was “significantly (P<0.05) inhibit any metastasis of cancer to lung”. The activity at 5 ppm in the assay on B-16 melanoma cells (setting [2]) was 80%. For the same molecule, the activity at 15 ppm with B-16 melanoma cells (setting [3]) was found to be 69%. For the same molecule, the activity at 25 ppm with B-16 melanoma cells (setting [4]) stood at 49%. The molecule further had an activity at 50 ppm with B-16 melanoma cells (setting [5]) of 30%. The “tumor cell-proliferation-inhibitory effect (in words)” value in the assay on B-16 melanoma cells (summary of Table 1) was “quite strong tumor cell-proliferation-inhibitory effects”.
Turning to `CC1(C)CC[C@]2(C(=O)O)CC[C@]3(C)C(=CC[C@@H]4[C@@]5(C)C[C@@H](O)[C@H](O)C(C)(C)[C@@H]5CC[C@]43C)[C@@H]2C1` [Purified maslinic acid 2, maslinic acid], the “RMI (rate of metastasis-inhibition)” value in the assay on B16 melanoma cells (50 mg/body wt. (kg), I.P. Adm.) is listed as 67.3%; in the assay with B16 melanoma cells (setting [1]), 78.6%. Moreover, the activity at 5 ppm with B-16 melanoma cells (Mus musculus, B16, 144 h, read-out: Cell Growth Rate, 5 ppm, viable cell count vs control on 6th day) turned out to be 75%. The activity at 10 ppm in the assay on B-16 melanoma cells (Mus musculus, B16, 144 h, read-out: Cell Growth Rate, 10 ppm, viable cell count vs control on 6th day) turned out to be 47%. Also, the activity at 15 ppm in the assay with B-16 melanoma cells (Mus musculus, B16, 144 h, read-out: Cell Growth Rate, 15 ppm, viable cell count vs control on 6th day) was found to be 11%. Also, the activity at 20 ppm in the assay on B-16 melanoma cells (Mus musculus, B16, 144 h, read-out: Cell Growth Rate, 20 ppm, viable cell count vs control on 6th day) stood at 0%. In addition, in the assay with B-16 melanoma cells (Mus musculus, B16, 144 h, read-out: Cell Growth Rate, 25 ppm, viable cell count vs control on 6th day), the activity at 25 ppm worked out at 0%.
`CC1(C)CC[C@]2(C(=O)O)CC[C@]3(C)C(=CC[C@@H]4[C@@]5(C)C[C@@H](O)[C@H](O)C(C)(C)[C@@H]5CC[C@]43C)[C@@H]2C1` [maslinic acid]: the “tumor cell-metastasis-inhibitory effect compared with the control group (in words)” value with B16 melanoma cells is on record as “significantly (P<0.05) inhibit any metastasis of cancer to lung”. For the same molecule, the “tumor cell-killing effect (in words)” value with B-16 melanoma cells is reported as “quite intensive tumor cell-killing effects”. Moreover, the “tumor cell-proliferation-inhibitory effect (in words)” value with B-16 melanoma cells (summary of Table 1) is recorded as “quite strong tumor cell-proliferation-inhibitory effects”.
